# Measured values taken from patent US20240156971A1, “METHODS AND SORTILIN BINDING CONJUGATE COMPOUNDS FOR TARGETING CANCER STEM CELLS” (TRANSFERT PLUS, SOCIÉTÉ EN COMMANDITE, priority 2021, published 2024).
# Square brackets hold non-standard residues; d marks the D form. Ends that are not written are not given here. Nle = CCCC[C@H](N)C(=O)O
# What was measured:
# hOvCSC xenografts = assay: Growth of hOvCSC xenografts in mice; assay type: in vivo; settings: weekly i.v.; TH1902 at doses equivalent to 1, 1.25 or 1.5 the MTD of docetaxel; docetaxel 15 mg/kg (MTD)
# Description: In vivo Assessment of Docetaxel and TH1902 Anti-Tumor Efficacy. Tumor xenografts were established by subcutaneous inoculation of 10^3 hBCSC cells, hOvCSC and hPCSC resuspended in […] of HBSS containing 50% Matrigel™, into the right flank of NCG triple immunodeficient female mice (Charles River, Saint-Constant QC) under light isoflurane anesthesia. Three days following implantation of either hBCSC or hOvCSCS, mice commenced receiving weekly treatment by intravenous bolus injections of vehicle (10% polysorbate-80, 5% dextrose, 0.04% formic acid pH 4.3), docetaxel (15 mg/kg (the MTD for this agent) or 3.75 mg/kg (¼ MTD for this agent), dissolved in 5% dextrose, 3.3% ethanol, […]) dissolved in vehicle. […] Tumor growth was measured using two-dimensional measurements taken with an electronic caliper, and tumor volume was calculated according to the following formula: tumor volume (mm^3)=π/6×length×width^2. Animal weights were measured three times per week with a precision of 10 mg.
# hBCSC xenografts = assay: Growth of hBCSC xenografts in mice; assay type: in vivo; settings: for growth of tumors originating from breast CSCs: weekly i.v., TH1902 at doses equivalent to 1, 1.25 or 1.5 the MTD of docetaxel, docetaxel 15 mg/kg (MTD)
# Description: (§1) In vivo Assessment of Docetaxel and TH1902 Anti-Tumor Efficacy. Tumor xenografts were established by subcutaneous inoculation of 10^3 hBCSC cells, hOvCSC and hPCSC resuspended in […] of HBSS containing 50% Matrigel™, into the right flank of NCG triple immunodeficient female mice (Charles River, Saint-Constant QC) under light isoflurane anesthesia. Three days following implantation of either hBCSC or hOvCSCS, mice commenced receiving weekly treatment by intravenous bolus injections of vehicle (10% polysorbate-80, 5% dextrose, 0.04% formic acid pH 4.3), docetaxel (15 mg/kg (the MTD for this agent) or 3.75 mg/kg (¼ MTD for this agent), dissolved in 5% dextrose, 3.3% ethanol, 1.7% Tween™-80) or TH1902 (35 mg/kg or 8.75 mg/kg) dissolved in vehicle. Note that the two TH1902 and docetaxel concentrations contain equimolar amounts of docetaxel due to the two docetaxel moieties per TH1902 molecule. Tumor growth was measured using two-dimensional measurements taken with an electronic caliper, and tumor volume was calculated according to the following formula: tumor volume (mm^3)=π/6×length×width^2. Animal weights were measured three times per week with a precision of 10 mg.
# [1] = assay type: in vivo, mice
# Description: as §1
# hBCSCs [2] = assay: Cell cycle analysis (G2/M) of hBCSCs; assay type: cell-based, human; settings: 2 h with 4 μM docetaxel or 2 μM TH1902, then 22 h or 48 h
# Experimental: Cell Cycle Analysis Following Treatment of hBCSC by Test Articles. hBCSCs (2.8×10^5 cells/well) and MDA-MB-231/luc cells (2.3×10^5 cells/well) were seeded in 6-well plates one day prior to treatment. To test the effects of Docetaxel and TH1902 on cell cycle phases, hBCSCs and MDA-MB-231/luc cells were treated for 2 hours in serum-free media with vehicle (DMSO), 4 μM docetaxel or 2 μM TH1902 (equimolar of docetaxel), rinsed with complete media and incubated in fresh complete media for 22 and 48 hours. For the experiments with the P-gp inhibitors, hBCSCs were first pre-treated for 30 minutes in serum-free media with vehicle (DMSO), or 10 μM cyclosporine A or PSC-833 (P-gp inhibitors). Next, cells were treated for 2 hours with 4 μM docetaxel or 2 μM TH1902 in the continued presence or absence of the P-gp inhibitors before being rinsed and incubated in fresh complete media in the continued presence or absence of the P-gp inhibitors. Cells were then incubated for 22 and 48 hours. In both assays, following the incubation, cells were detached with trypsin, fixed with ice-cold 70% EtOH and kept overnight at 4° C. Cells were washed once with PBS, after which they were stained for 30 minutes at room temperature with FxCycle™ PI/RNase Staining Solution (Thermo Scientific, Waltham, MA; #F10797). Cells were finally subjected to cell cycle analysis using a BD Accuri™ C6 flow cytometer.
# ovarian hOCSC xenografts = assay: hOCSC xenografts treated with single agents or combined with carboplatin; assay type: in vivo, mice; settings: for inhibition of tumor growth, single agent: docetaxel 10 mg/kg, TH1902 23 mg/kg, paclitaxel 10 mg/kg, carboplatin 40 mg/kg, day 18
# Experimental: Mice bearing ovarian hOCSC xenografts were treated with vehicle, docetaxel, paclitaxel, TH1902 or carboplatin, and other groups of mice were administered carboplatin in combination with either docetaxel, paclitaxel or TH1902. To minimize the risk of side effects resulting from combining treatments, the dosages used for each drug were reduced to the following: docetaxel 10 mg/kg; TH1902 23 mg/kg (equivalent to the docetaxel dosage); paclitaxel 10 mg/kg; carboplatin 40 mg/kg (unchanged).
# hBCSCs [3] = assay: hBCSC apoptosis by flow cytometry (annexin V-FITC/PI); assay type: cell-based, human; settings: 2 h treatment, 4 μM docetaxel or 2 μM TH1902; 22 h, 48 h, 72 h post-treatment
# Experimental: Assessment of hBCSC Apoptosis by Flow Cytometry. AnnexinV/PI staining was performed using an Apoptosis Detection Kit (BD Pharmingen, Mississauga ON) according to the manufacturer's instructions. Briefly, hBCSCs (1.3×10^5 cells/well) were seeded for 24 hours in 12-well plates. Cells were treated in serum-deprived medium for 2 hours with vehicle (DMSO), 4 μM Docetaxel or 2 μM TH1902. Cells were washed with complete medium and incubated in fresh complete medium for 22, 48, and 72 hours. Cells were finally harvested, resuspended in a staining solution of 100 μl of 1×binding buffer containing 5 μL of annexinV-FITC and 5 μL of PI. Cells were incubated for 15 minutes at room temperature in the dark before analysis by flow cytometry. The extent of apoptosis was measured, then analyzed using BD Accuri™ C6 software.
# pancreatic CSCs = assay: Growth of tumors originating from pancreatic CSCs in mice; assay type: in vivo; settings: TH1902 at doses equivalent to 1, 1.25 or 1.5 the MTD of docetaxel; docetaxel 15 mg/kg (MTD)
# Description: as §1
# [4] = system: MDA-MB-231/luciferase tumor xenografts; assay: Cancer relapse in MDA-MB-231/luciferase xenograft mouse model of TNBC; assay type: in vivo, mice; settings: treated at day 0, 7, 14 and 21; for cancer relapse at later time points (day 74): assessed up to day 74
# Experimental: It was then assessed whether treatment with docetaxel or TH1902 could prevent cancer relapse using the MDA-MB-231/luciferase xenograft mouse model of TNBC. The MDA-MB-231 tumor cell has been reported to have cells with cancer stem cell (CSC)-like properties (Sleeboom et al., Int J Mol Sci. 2018 October; 19(10): 3047; Ghanbari et al., Int. J. Morphol., 34(4):1197-1202, 2016). Mice with MDA-MB-231/luciferase tumor xenografts were treated a day 0, 7, 14 and 21 with either vehicle (control), Docetaxel or TH1902 and tumor growth was assessed up to day 74.
compound,measurement,setting,value
"CC(=O)O[C@@]12CO[C@@H]1C[C@H](O)[C@@]1(C)C(=O)[C@H](O)C3=C(C)[C@@H](OC(=O)[C@H](O)[C@@H](NC(=O)OC(C)(C)C)c4ccccc4)C[C@@](O)([C@@H](OC(=O)c4ccccc4)[C@H]21)C3(C)C [docetaxel, reference compound]",growth of tumors originating from ovarian CSCs,hOvCSC xenografts,no significant reduction of tumor growth
same,growth of tumors originating from breast CSCs,hBCSC xenografts,no significant reduction of tumor growth
same,weight loss,"[1]; mouse, in vivo",5-10%
same,G2/M cell cycle arrest,hBCSCs [2],not
same,"inhibition of tumor growth, single agent",ovarian hOCSC xenografts,clearly inferior to that of TH1902
same,total apoptosis,hBCSCs [3],indistinguishable from that seen in control cells
same,growth of tumors originating from pancreatic CSCs,pancreatic CSCs,no significant reduction of tumor growth
same,tumor growth during and shortly after administration,[4],reduction in tumor growth
same,cancer relapse at later time points (day 74),[4],tumor resurgence was observed
Acetyl-GVRAK(docetaxel)AGVRN(Nle)FK(docetaxel)SESY (Ac-GVRAK(docetaxel)AGVRN[Nle]FK(docetaxel)SESY) [TH1902],growth of tumors originating from ovarian CSCs,hOvCSC xenografts,significant inhibition of the growth of tumors
same,tumor growth curve at 8.75 mg/kg TH1902 (eq. to 1/4 of docetaxel MTD),"hBCSC xenografts; hBCSC xenografts, weekly, FIG. 8A",virtual overlap between the 15 mg/kg docetaxel curve and the 8.75 mg/kg TH1902 curve
same,growth of tumors originating from breast CSCs,hBCSC xenografts,significant inhibition of the growth of tumors
same,effect on animals' weight,"[1]; FIGS. 8C, 9C and 10C",no or minimal effect
same,G2/M cell cycle arrest,hBCSCs [2],significant increase in G2/M cell cycle arrest
same,"inhibition of tumor growth, single agent",ovarian hOCSC xenografts,much greater than that of either taxanes
same,"inhibition of tumor growth, combined with carboplatin","ovarian hOCSC xenografts; plus carboplatin 40 mg/kg intraperitoneal, vs the agent alone",slightly increased
same,total apoptosis,hBCSCs [3],large increase in apoptosis
same,growth of tumors originating from pancreatic CSCs,pancreatic CSCs,significant inhibition of the growth of tumors
same,tumor growth during and shortly after administration,[4],reduction in tumor growth
same,cancer relapse at later time points (day 74),[4],No residual tumor could be detected
